# Biological target: PI3Kβ (Homo sapiens (Human), UniProt P42338)
# Assay: PI3K isoform TR-FRET enzymatic assay (PI3Kβ)
# Type: biochemical
# Settings: 2× Km ATP, 30 minutes at 25° C.
# Outline: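 Heterodimeric recombinant PI3Kβ was incubated with compound 30 minutes at 25° C. Product was detected by TR-FRET competition with 10 nM labeled PIP3 for 35 nM Eu-GRP-1 PH domain after EDTA stop. Data were normalized to 1 μM wortmannin and DMSO, and IC50 was taken from a four-parameter fit.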
# Chain of PI3Kβ (P42338 whole entry, canonical isoform): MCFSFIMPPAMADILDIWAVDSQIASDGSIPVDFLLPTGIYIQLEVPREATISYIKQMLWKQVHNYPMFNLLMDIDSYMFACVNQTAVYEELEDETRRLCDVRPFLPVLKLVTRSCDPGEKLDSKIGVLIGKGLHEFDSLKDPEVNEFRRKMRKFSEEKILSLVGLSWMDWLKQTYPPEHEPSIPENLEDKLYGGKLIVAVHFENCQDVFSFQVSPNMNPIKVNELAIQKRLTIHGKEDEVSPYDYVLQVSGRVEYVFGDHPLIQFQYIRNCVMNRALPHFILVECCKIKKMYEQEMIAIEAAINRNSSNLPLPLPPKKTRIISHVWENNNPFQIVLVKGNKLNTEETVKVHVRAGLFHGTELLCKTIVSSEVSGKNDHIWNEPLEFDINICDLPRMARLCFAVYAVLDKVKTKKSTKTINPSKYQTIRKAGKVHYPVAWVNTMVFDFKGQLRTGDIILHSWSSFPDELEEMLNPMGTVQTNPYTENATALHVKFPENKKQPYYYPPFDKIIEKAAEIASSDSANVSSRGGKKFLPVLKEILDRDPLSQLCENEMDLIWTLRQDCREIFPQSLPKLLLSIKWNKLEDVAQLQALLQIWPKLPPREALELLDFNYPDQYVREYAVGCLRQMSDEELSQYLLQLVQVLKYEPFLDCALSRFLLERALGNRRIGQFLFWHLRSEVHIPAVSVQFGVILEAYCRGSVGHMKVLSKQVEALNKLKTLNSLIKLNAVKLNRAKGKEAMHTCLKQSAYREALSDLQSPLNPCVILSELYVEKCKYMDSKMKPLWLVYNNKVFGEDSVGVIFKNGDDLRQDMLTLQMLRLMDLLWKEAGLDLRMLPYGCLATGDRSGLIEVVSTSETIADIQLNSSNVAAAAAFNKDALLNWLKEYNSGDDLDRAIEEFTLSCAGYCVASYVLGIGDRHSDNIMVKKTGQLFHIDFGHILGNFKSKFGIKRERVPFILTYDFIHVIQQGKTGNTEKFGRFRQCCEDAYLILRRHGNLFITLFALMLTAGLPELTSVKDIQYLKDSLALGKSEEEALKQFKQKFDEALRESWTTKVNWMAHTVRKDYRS
# Chain of PI3Kβ (P27986 whole entry partner, canonical isoform): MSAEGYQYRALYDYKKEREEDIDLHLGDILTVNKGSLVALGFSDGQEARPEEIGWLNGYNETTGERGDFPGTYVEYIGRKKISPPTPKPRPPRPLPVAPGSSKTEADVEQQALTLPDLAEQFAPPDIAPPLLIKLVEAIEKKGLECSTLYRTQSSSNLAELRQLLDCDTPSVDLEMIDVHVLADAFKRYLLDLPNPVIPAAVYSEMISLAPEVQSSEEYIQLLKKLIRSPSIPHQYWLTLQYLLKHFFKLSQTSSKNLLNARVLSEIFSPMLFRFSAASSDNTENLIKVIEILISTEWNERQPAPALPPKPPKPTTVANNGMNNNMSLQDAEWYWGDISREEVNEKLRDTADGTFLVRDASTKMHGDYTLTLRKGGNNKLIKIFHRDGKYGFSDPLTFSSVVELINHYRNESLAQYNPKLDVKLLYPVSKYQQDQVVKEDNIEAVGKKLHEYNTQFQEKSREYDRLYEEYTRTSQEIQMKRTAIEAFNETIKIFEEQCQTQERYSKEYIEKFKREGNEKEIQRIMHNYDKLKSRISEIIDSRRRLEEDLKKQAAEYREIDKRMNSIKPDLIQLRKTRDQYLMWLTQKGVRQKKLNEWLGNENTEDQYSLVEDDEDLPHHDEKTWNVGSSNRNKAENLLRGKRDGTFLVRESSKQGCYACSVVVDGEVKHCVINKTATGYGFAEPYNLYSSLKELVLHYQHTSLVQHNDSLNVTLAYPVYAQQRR
row,Structure (SMILES),IC50
1,"Fc1ccc(F)c2c(-n3cnc4c(-c5cnc(C(F)(F)F)[nH]5)cc(N5CCOCC5)cc43)ccnc12 [Example 390, 4-(1-(5,8-difluoroquinolin-4-yl)-4-(2-(trifluoromethyl)-1H-imidazol-5-yl)-1H-benzo[d]imidazol-6-yl)morpholine]",840 nM
2,"CCc1nc2c(-c3nnc[nH]3)cc(N3CCOCC3)cc2n1-c1c(-c2nnc[nH]2)cnc2ccccc12 [Example 391, 4-(1-(3-(4H-1,2,4-triazol-3-yl)quinolin-4-yl)-2-ethyl-4-(4H-1,2,4-triazol-3-yl)-1H-benzo[d]imidazol-6-yl)morpholine]",10 nM
3,"Cc1nc2c(-c3nnc[nH]3)cc(N3CCOCC3)cc2n1-c1c(-c2nnc[nH]2)cnc2ccccc12 [Example 392, 4-(1-(3-(4H-1,2,4-triazol-3-yl)quinolin-4-yl)-2-methyl-4-(4H-1,2,4-triazol-3-yl)-1H-benzo[d]imidazol-6-yl)morpholine]",9 nM
4,"Cc1nc2c(-c3nnc(N)[nH]3)cc(N3CCOCC3)cc2n1-c1ccnc2c(F)ccc(F)c12 [Example 393, 5-(1-(5,8-difluoroquinolin-4-yl)-2-methyl-6-morpholino-1H-benzo[d]imidazol-4-yl)-4H-1,2,4-triazol-3-amine]",21 nM

# Reference: patent US10214519B2, “Phosphatidylinositol 3-kinase inhibitors” (Gilead Sciences, Inc., priority 2016, dated 2019)
